System: guinea pigs
Experiment: Ototoxic drug-induced (kanamycin/furosemide) hearing loss model in vivo, CAP threshold recordings of the auditory nerve
Design: species or system guinea pig
Method: The inventive compounds were also tested in vivo. In this context, for repeated recording of the Compound Action Potential (CAP) of the auditory nerve, guinea pigs were bilaterally implanted with a permanent gold electrode at the round window niche. The round window is an opening from the middle ear into the inner ear. The gold electrodes were connected to a miniature plug on the skull. During the experiments, audiograms were determined between 0.5 and 45.6 kHz, at a resolution of 8 steps per octave. An automated threshold search algorithm was applied.
After a baseline audiogram was measured, the animals were pretreated with an inventive compound, as an ion channel activator, via local application to the middle ear. The corresponding solution of the inventive compound was removed after an exposure time, e. g. after 2 hours. Then, the middle ear was rinsed and dried out before CAP recordings were performed to assess threshold shifts.
Then, deafness was induced with the Guinea pigs by local application to the middle ear of a mixture of at least one ototoxic agent and at least one inventive compound. E. g. kanamycin, furosemide or mixtures of these compounds can be used as ototoxic agents.
The resulting CAP response thresholds were compared to ears which were exposed to the ototoxic agents alone.
All animals received care in accordance with the standards described by the German ‘Law on Protecting Animals’ (Tierschutzgesetz) and with the European Directive 2010/63/EU for the protection of animals used for experimental purposes. Experiments were approved by the local authorities (Application HN03/15).
All procedures were performed under anesthesia using a mixture of Fentanyl, Midazolam and Medetomidine. During surgery and measurements animals were kept on a 37° C. heating pad. For repeated recording of the Compound Action Potential (CAP) of the auditory nerve, guinea pigs were bilaterally implanted with a permanent gold electrode at the round window (RW) niche connected to a miniature plug on the skull. Audiograms were determined between 0.5 and 45.6 kHz, at a resolution of 8 steps per octave. An automated threshold search algorithm was applied.
After a baseline audiogram was measured, animals were pretreated with an ion channel activator, in this case with ACOU001, via local application to the middle ear. […]
The solution containing ACOU001 was removed after 2 hours and the middle ear rinsed and dried out before CAP recordings were performed to assess threshold shifts. […] After the final measurement on day 21, animals were sacrificed, cochleae fixed by perfusion with 4% paraformaldehyde and prepared for immunohistological analysis to quantify hair cell (HC) protection.

## O=C(NCc1ccc(S(F)(F)(F)(F)F)cc1)c1ccc(Cl)s1 [ACOU001, 5-Chloro-N-(4-(pentafluorosulfanyl)benzyl)thiophene-2-carboxamide]
7 and 21 days after kanamycin/furosemide plus compound
  CAP curves (threshold levels) over time after co-treatment: shifted to higher threshold levels after seven days but ameliorated after 21 days
After 21 days, all frequencies, co-treatment with kanamycin/furosemide
  reduction of hearing loss compared to the ototoxic drug alone: 25-40 dB SPL
Day 0, 2 hours local application to the middle ear, compared to baseline CAP-thresholds in untreated ears
  CAP-threshold loss after pretreatment: small, most likely conductive, hearing loss
Day 0, mid to high frequencies (5-11 kHz), 100 μM with 200 mg/ml kanamycin, 50 mg/ml furosemide, local to middle ear
  reduction of hearing loss compared to the ototoxic drug alone: ~25 dB SPL

From patent publication US11884642B2, “Compounds useful as potassium channel openers” (ACOUSIA THERAPEUTICS GMBH, priority 2017, dated 2024)
